Measurements published in ChEMBL document CHEMBL2086295, “The design, synthesis, in silico ADME profiling, antiplasmodial and antimycobacterial evaluation of new arylamino quinoline derivatives” (Eur J Med Chem, 2012).
Values after ≈ are worked out from the molar mass of the structure shown.

Tests used:
[1] = test system: Mycobacterium tuberculosis; assay: Antimycobacterial activity against Mycobacterium tuberculosis H37Rv ATCC 27294 after 7 days by microplate alamar blue assay; assay type: functional; conditions: for MIC90: Mycobacterium tuberculosis, H37Rv ATCC 27294, 168 h
[2] = test system: Mycobacterium tuberculosis; assay: Antimycobacterial activity against Mycobacterium tuberculosis H37Rv ATCC 27294 after 10 days by low oxygen recovery assay; assay type: functional; conditions: for MIC90: Mycobacterium tuberculosis, H37Rv ATCC 27294, 240 h
Plasmodium falciparum [3] = assay: Antiplasmodial against chloroquine-rsistant Plasmodium falciparum K1 assessed as inhibition of [3H]hypoxanthine incorporation after 24 hrs by scintillation counting; assay type: functional, organism-based
Plasmodium falciparum [4] = assay: Antiplasmodial against chloroquine-sensitive Plasmodium falciparum 3D7 assessed as inhibition of [3H]hypoxanthine incorporation after 24 hrs by scintillation counting; assay type: functional, organism-based
Plasmodium falciparum [5] = assay: Antiplasmodial against chloroquine-rsistant Plasmodium falciparum W2 after 2 days by flow cytometry; assay type: functional, organism-based; conditions: W2, 48 h
[6] = Kinetic solubility of the compound at pH 7.4; assay type: physicochemical; conditions: buffer, read-out: Kinetic_solubility

Structure (SMILES) | MIC90 [1] | inhibition (INH) [1] | inhibition (INH) [2] | MIC90 [2] | IC50 (Plasmodium falciparum [3]) | IC50 (Plasmodium falciparum [4]) | IC50 (Plasmodium falciparum [5]) | solubility kinetic [6]
O[C@@H](c1cc(C(F)(F)F)nc2c(C(F)(F)F)cccc12)[C@H]1CCCCN1 (relative stereo) [(S,R)-MEFLOQUINE] | 10 µM (≈ 3.78 µg/mL) |  |  |  |  |  |  | 
CO[C@H]1/C=C/O[C@@]2(C)Oc3c(C)c(O)c4c(O)c(c(/C=N/N5CCN(C)CC5)c(O)c4c3C2=O)NC(=O)/C(C)=C\C=C\[C@H](C)[C@H](O)[C@@H](C)[C@@H](O)[C@@H](C)[C@H](OC(C)=O)[C@@H]1C [RIFAMPIN] | 0.05 µM (≈ 0.0411 µg/mL) | 100% | 98% | 1.93 µM (≈ 1.59 µg/mL) |  |  |  | 
C=C[C@H]1CN2CC[C@H]1C[C@H]2[C@H](O)c1ccnc2ccc(OC)cc12 [QUININE] | 120 µM (≈ 38.8 µg/mL) | 95% | 98% | 122 µM (≈ 39.6 µg/mL) | 20.4 nM | 0.7 nM | 18.7 nM | 
COc1ccc2nccc(C(c3nnnn3C(C)(C)C)N3CCOCC3)c2c1 (stereo not given) | > 128 µM | 0% | 32% | > 128 µM | 1230 nM | 980 nM | > 10000 nM | 179 µM (≈ 68.3 µg/mL)
CN[C@@H]1[C@H](O[C@H]2[C@H](O[C@H]3[C@H](O)[C@@H](O)[C@H](N=C(N)N)[C@@H](O)[C@@H]3N=C(N)N)O[C@@H](C)[C@]2(O)C=O)O[C@@H](CO)[C@H](O)[C@H]1O [STREPTOMYCIN] | 0.4 µM (≈ 0.233 µg/mL) |  |  |  |  |  |  | 
CCN(CC)C(c1ccnc2ccc(OC)cc12)c1nnnn1C(C)(C)C (stereo not given) | > 128 µM | 83% | 94% | 123 µM (≈ 45.4 µg/mL) | 2390 nM | 2390 nM | > 10000 nM | 137 µM (≈ 50.4 µg/mL)
COc1ccc2nccc(C(c3nnnn3C(C)(C)C)N(C)C)c2c1 (stereo not given) | > 128 µM | 16% | 42% | > 128 µM | 1310 nM | 1310 nM | > 10000 nM | 189 µM (≈ 64.5 µg/mL)
CN(C)C(c1cc(C(F)(F)F)nc2c(C(F)(F)F)cccc12)c1nnnn1C(C)(C)C (stereo not given) | > 160 µM |  |  |  | 4520 nM |  |  | 
COc1ccc2nccc(C(c3nnnn3C(C)(C)C)N3CCN(C)CC3)c2c1 (stereo not given) | > 128 µM | 0% | 0% | > 128 µM | 7950 nM | 16800 nM | 8390 nM | 
NNC(=O)c1ccncc1 [ISONIAZID] | 0.23 µM (≈ 0.0315 µg/mL) | 92% | 64% | > 128 µM |  |  |  | 
COc1ccc2nccc(C(c3nnnn3C(C)(C)C)N3CCCCC3)c2c1 (stereo not given) | 92.5 µM (≈ 35.2 µg/mL) | 98% | 64% | > 128 µM | 2630 nM | 647 nM | > 10000 nM | 114 µM (≈ 43.5 µg/mL)
COc1ccc2nccc(C(c3nnn[nH]3)N3CCOCC3)c2c1 (stereo not given) | > 128 µM | 0% | 1% | > 128 µM | 6740 nM | 8620 nM | > 10000 nM | 202 µM (≈ 65.9 µg/mL)
COc1ccc2nccc(C(c3nnnn3C(C)(C)C)N3CCCC3)c2c1 (stereo not given) | > 128 µM | 24% | 30% | > 128 µM | 13800 nM | 13800 nM | > 10000 nM | 
O=[N+]([O-])c1cn2c(n1)OC[C@@H](OCc1ccc(OC(F)(F)F)cc1)C2 [PRETOMANID] | 0.12 µM (≈ 0.0431 µg/mL) | 99% | 100% | 3.78 µM (≈ 1.36 µg/mL) |  |  |  | 
CCN(CC)C(c1cc(C(F)(F)F)nc2c(C(F)(F)F)cccc12)c1nnnn1C(C)(C)C (stereo not given) | > 160 µM |  |  |  | 2320 nM |  |  | 
NC[C@H]1O[C@H](O[C@H]2[C@H](O)[C@@H](O[C@H]3O[C@H](CO)[C@@H](O)[C@H](N)[C@H]3O)[C@H](N)C[C@@H]2N)[C@H](O)[C@@H](O)[C@@H]1O [KANAMYCIN] | 3.12 µM (≈ 1.51 µg/mL) |  |  |  |  |  |  | 
